Laboratory results as given in patent publication US11759480B2, “Compositions and methods for CAR T cell therapy” (ENDOCYTE, INC., priority 2017, dated 2023).

Experiments:
THP-1-FRβ tumors = assay: EC17/CAR-T therapy in folate receptor-β positive acute myeloid leukemia model (Example 44); format: in vivo
Excerpt: THP-1-FRβ tumors were generated by intravenous implantation of cultured cells at 5×10^6 per animal in 9 NSG mice.
Starting 11 days post tumor implantation, ˜8.3 million of GFP+4M5.3 CAR-T cells were intravenously infused into each mouse. Mice were divided into 3 groups (n=3): (1) CAR-T cell alone, (2) CAR-T cells with weekly EC17 doses at 500 nmol/kg, and (3) CAR-T cells with weekly EC17 doses at 500 nmol/kg plus sodium fluorescein rescue when needed. The first EC17 dose was given two days after CAR-T cell administration. All EC17 doses were given towards the end of day (˜3-4 PM) to allow cytokine release syndrome (CRS) to develop overnight. […] No additional sodium fluorescein rescue was given for additional EC17 dosing in Group 3. Mice were weighed and monitored for sign of health and disease development. […] Upon euthanasia, all mice were subject to gross examination for the presence of tumor masses. All visible tumor masses were excised, counted and weighed. Blood, tumor metastases (mets) and normal adjacent tissues were collected for same-day flow cytometry analysis.
Plasma was removed from predetermined volumes of whole EDTA treated blood with a 10-minute 4° C. spin at 3000×g and the resulting cell pellets were incubated with a 10-fold volume of room temperature 1×RBC lysis solution (prepared from 10× stock; Biolegend, catalog #420301) for 5 minutes, centrifuged at 400×g for 5 min. The cell pellets were washed in a 10-fold volume of ice-cold phosphate-buffered saline (PBS, pH=7.4 and filtered with a 40 μm nylon filter then pelleted again. The leukocyte cell pellets were then resuspended in a flow cytometry staining solution (1% bovine serum albumin, […] human IgG (Equitech Bio, cat #SLH56-0001), 0.9% sodium azide in PBS, pH=7.4) supplemented with both anti-mouse FcγIII/II receptor (CD16/CD32) block (clone 2.4G2; BD Bioscience, catalog #553142 at 1:100 (v/v) dilution) and anti-human Fc Block (BD Biosciences, catalog #564220 at 1:50 (v/v) dilution). Surface marker staining was performed with the addition of the following fluorochrome conjugated monoclonal antibodies added to each sample for 20 minutes on ice in the dark: anti-human CD45-APCeF780 (clone HI30, eBioscience #47-0459-42 at 1:20 (v/v) dilution), anti-human CD3-BV650 (clone SK7, BD Bioscience, catalog #563999 at 1:20 (v/v) dilution), anti-human CD137-BV650 (clone 4B4-1, BD Bioscience #564092 at 1:20 (v/v) dilution), anti-human CD8α-PECy7 (clone RPA-T8, BD Bioscience, catalog #557746 at 1:20 (v/v) dilution), anti-human CD4-Percpe710 (clone SK3, eBioscience catalog #46-0047-42 at 1:20 (v/v) dilution), anti-human CD25-PE (clone M-A251, BD Bioscience, catalog #555432 at 1:10 (v/v) dilution), anti-human CD33-PE (clone WM53, BD Bioscience, catalog #555450 at 1:5 (v/v) dilution), anti-human CD123-AF647 (clone 9F5, BD Bioscience, catalog #563599 at 1:20 (v/v) dilution). Biotinylated anti-human folate receptor-β (clone m909) was kindly provided by the Low lab at Purdue University (Arthritis Res Ther. 2011; 13(2):R59) and detected using streptavidin-eFluor660 (eBioscience, catalog #50-4317 at 1:1000 (v/v) dilution). Folic acid binding was interpreted as a measure of functional folate receptor and was determined by incubation with an Alexa Fluor conjugated folic acid which was synthesized in house. After leukocyte staining, cells were washed with PBS and resuspended in cold PBS containing 3 μM propidium idodide. Flow cytometry data was collected on the Gallios flow cytometer (Beckman Coulter, Brea, Calif.), where a minimum of 15,000 CountBright™ bead events were collected in an attempt to collect enough leukocyte events for an accurate count of infused CAR T cells in each mouse blood sample. Determination of the concentration of CAR T cells in each blood sample was calculated according to Invitrogen's instructions. Briefly, CAR T cells were identified as human CD45+ GFP+ events and easily distinguished and counted using the Kaluza™ flow cytometry software version 1.5. […]

MDA-MB-231 tumors = assay: Host mouse cytokines after NaFL rescue (Example 48); format: in vivo, NSG mice
Protocol: In the first part of the study (FIG. 75), mice were treated with EC17 and FITC-CAR-T cells. When mice started to show sCRS, one dose of 60 umol/kg NaFL was injected for rescue. Mouse blood samples were then collected at both 7 hours and 27 hours post NaFL rescue. Mouse cytokine levels in blood were analyzed using a mouse inflammation panel kit (Cat. No. 740446) from BioLegend by following the manufacturer's instructions. FIGS. 76 A-E show cytokine levels 7 hours post rescue. FIGS. 77A-C show cytokine levels 27 hours post rescue.
In the second part of the study, a series of concentrations of NaFL were tested for their rescue efficiency (FIG. 78). As shown in FIGS. 79-81, mice cytokine levels in blood were also dependent on the concentrations of sodium fluorescein used for rescue, and the median effective dose is about 0.6 μmol/kg with cytokines tested (e.g. MCP-1, IL-6, and IL-10) and the mice started to respond as early as 3 hours post rescue.

Question: Which results are given for `O=C([O-])c1ccccc1-c1c2ccc(=O)cc-2oc2cc([O-])ccc12.[Na+].[Na+]` [sodium fluorescein]?
Answer: recovery from CRS (THP-1-FRβ tumors; 6 μmol/kg, Group 3): completely recovered; CAR T cell functionality after rescue (THP-1-FRβ tumors; mouse #10, rescue after first EC17 dose): CAR T cell functionality was preserved; mouse cytokine levels in blood (MDA-MB-231 tumors; 60 μmol/kg, 7 hours and 27 hours post rescue): much lower than those in un-rescued mice; earliest response post rescue (MDA-MB-231 tumors; mouse, in vivo): 3 h; median effective dose (mouse MCP-1, IL-6, IL-10) (MDA-MB-231 tumors; mouse, in vivo): about 0.6 μmol/kg

Question: Which results are given for `Nc1nc2ncc(CNc3ccc(C(=O)NC(CCC(=O)NCCNC(=S)Nc4ccc(-c5c6ccc(=O)cc-6oc6cc(O)ccc56)c(C(=O)O)c4)C(=O)O)cc3)nc2c(=O)[nH]1` (centres unmarked) [EC17, FITC-Folate]?
Answer: GFP+ leukemic cells in blood (THP-1-FRβ tumors; 500 nmol/kg SIW for 4 weeks, day 34 post CAR-T infusion): nearly undetectable in the blood; CRS grade (THP-1-FRβ tumors; morning after first EC17 dose 500 nmol/kg, ~8.3 million CAR-T): ~3 grade; persistence of anti-leukemia activity post CAR T cell infusion (THP-1-FRβ tumors; mouse, in vivo): 47 days; EC17-treated mice with minimum tumor load at collection (THP-1-FRβ tumors; weekly 500 nmol/kg, +/- one-time sodium fluorescein rescue): five out of the 6; CAR T cell phenotype (THP-1-FRβ tumors; weekly injections of EC17): central memory/effector memory phenotype; mouse cytokine levels in blood (MCP-1, IL-6, IL-10, IFN-β, TNF-α) (MDA-MB-231 tumors; EC17 dosed versus CAR-T without EC17): increased mouse cytokine levels
